# Laboratory results from patent US12628822B2, “Plant pathogen defence elicitors” (UNIVERSITÉ LIBRE DE BRUXELLES, priority 2020, dated 2026).
# Legend:
# [1] = system: camalexin; experiment: Camalexin quantification by LC-MS; format: in vivo, Arabidopsis thaliana; conditions: 100 μM, 24 h, 14-day-old Col-0 plants
# Procedure: For each treatment, camalexin was extracted from a pool of 14-day-old Arabidopsis. Briefly, 100 mg of ground-frozen samples were soaked using 80% (v:v) methanol in 1:1 (m/v) ratio. After homogenization, the supernatant was recovered through centrifugation at 17,000×g for 5 min and evaporated at 50° C. in nitrogen gas atmosphere. The residues were finally resuspended in high-performance LC-grade methanol and filtrated with 0.22-μm filters. Each pool was then analysed three times by LC-MS, using a reverse-phase LUNA® Omega 5 μm Polar C18 column (250×4.6 mm). The mobile phases were composed of 0.1% […] (solvent A) and acetonitrile (solvent B). The applied gradient was as follows: 0-2 min, 10% B; 2-13 min, 10-98% B; 13-23 min, 98% B; 23-25 min, 98-10% B; 25-30 min, […]; post-run 1 min.
# [2] = system: oxidative burst; experiment: Oxidative burst detection (DAB, NBT, luminol-based assays); format: in vivo, Arabidopsis thaliana
# Procedure: Hydrogen peroxide was assayed in both in vitro-growth and in soil-growth Arabidopsis plants. In situ detection of H2O2 was performed following the protocol described by Daudi and O'Brien (Detection of Hydrogen Peroxide by DAB Staining in Arabidopsis Leaves. Bio Protoc. 2012, vol. 2(18), e263). Briefly, 5-week-old Col-O plants leaves were droplet-treated (40-50 μl drops per leaf) with indicated compounds. At 24 h after treatment four rosette leaves from five independent plants were gently vacuum-infiltrated (5 min) with 1 mg ml^−1 3,3′-diaminobenzidine (DAB) dissolved in 10 mM sodium phosphate buffer and 0.05% v/v Tween 80. The staining reaction was terminated 5 h after DAB infiltration, and leaves were fixed in ethanol:glycerol:acetic acid 3:1:1. Chlorophyll was removed by several washing steps with 70% v/v ethanol and pictures were token with a stereomicroscope (Discovery V8, Zeiss).
# Elicitor-induced H2O2 was also detected by luminol-peroxidase-based assay as described by Albert et al. (Chemiluminescence Detection of the Oxidative Burst in Plant Leaf Pieces. Bio-protocol 2015, vol. 5(6), e1423). Briefly, twenty leaves from 10 independent 4-5-week-old Col-0 plants were cut and incubated in ddH2O overnight. Time course luminescence was evaluated using The SpectraMax iD3 Multi-Mode Microplate Reader (Molecular devices, San Jose, CA, USA) with an integration time per well=1000 ms. […]
# [3] = system: Botrytis cinerea; experiment: Protection of tomato plants against Botrytis cinerea (lesion areas); format: in vivo; conditions: 100 μM; 4 weeks old tomato plants; compared with 100 μM AA9_COS
# Procedure: All experiments were carried on 4 weeks old tomato plants infected with 10^6 spores per millilitres of Botrytis cinerea.
# Protection of tomatoes plant against pathogen Botrytis cinerea using several combinations of native cellodextrines, and C1-oxidised, C4-oxidised, and optionally C1- and C4-oxidised (double oxidised) cellodextrines was tested (FIG. 14). In particular, the numerals in FIG. 14 represent mixtures with the following molar proportions of the respective cellodextrins components: • native:C1-oxidised:C4-oxidised • (1) 4:5:1; (2) 6.5:3:0.5; (3) 3:6.5:0.5; (4) 4:3:3; (5) 4:1:5; (6) 0.5:9:0.5; • native:C1-oxidised:C4-oxidised:doubly oxidised • (7) 0.5:4:0.5:5; (8) 2.5:2.5:2.5:2.5.
# All experiments were carried on 4 weeks old tomato plants infected with 10^6 spores of Botrytis cinerea. All mixtures were applied having the same molar mass concentration of 100 μM.
smiles,measurement,setting,value
"OC[C@H]1O[C@@H](O[C@H]2[C@H](O)[C@@H](O)[C@H](O)O[C@@H]2CO)[C@H](O)[C@@H](O)[C@@H]1O [Cellobiose, β-D-glucopyranosyl(1→4)D-glucopyranose]",camalexin level,[1],3.7 ± 1.8 ng/g
same,short-term extracellular H2O2 production (luminol-based assay),[2]; 14-day old plants,no H2O2 production was detected
same,in situ production of H2O2 and O2− (DAB and NBT assays),"[2]; 24 h after treatments, 5-week old plants",no measurable production
same,protection of tomato plants (size of lesion areas),[3],less protective effect
